The NIST ThermoML archive (doi:10.1016/j.jct.2009.06.001)
± gives the expanded uncertainty stated by the source.

Columns and labels:
[1] = mn = molality of the nth substance listed, in mol/kg; details: 298.15 K, 101 kPa, Liquid; for speed of sound: Sing-around technique in a fixed-path interferometer; for mass density: Vibrating tube method
[2] = 298.15 K, 101.33 kPa, Liquid; for speed of sound: Sing-around technique in a fixed-path interferometer; for mass density: Vibrating tube method

c1ccc(-c2ccccc2-c2ccccc2)cc1 [o-terphenyl] + CCCCCCC
[1]
Details	mass density [kg/m3]	speed of sound [m/s]
m1 = 0.0267	681.11 ± 1.6	1132.8 ± 1.8
m1 = 0.0392	681.85 ± 1.6	1133.5 ± 1.8
m1 = 0.0544	682.75 ± 1.6	1134.1 ± 1.8
m1 = 0.0652	683.4 ± 1.6	1134.6 ± 1.8
m1 = 0.0763	684.05 ± 1.6	1135.2 ± 1.8

CCCCCCC [heptane]
[2]
Details	mass density [kg/m3]	speed of sound [m/s]
–	679.55 ± 1.6	1131.4 ± 1.8

c1ccc(-c2cccc(-c3ccccc3)c2)cc1 [m-terphenyl] + C1CCCCC1
[1]
Details	mass density [kg/m3]	speed of sound [m/s]
m1 = 0.0253	775.15 ± 1.6	1256.5 ± 1.8
m1 = 0.0482	776.28 ± 1.6	1257.4 ± 1.8
m1 = 0.0693	777.33 ± 1.6	1258.2 ± 1.8
m1 = 0.0928	778.48 ± 1.6	1259.2 ± 1.8
m1 = 0.1161	779.62 ± 1.6	1260.1 ± 1.8

C1CCCCC1 [cyclohexane]
[2]
Details	mass density [kg/m3]	speed of sound [m/s]
–	773.87 ± 1.6	1255.3 ± 1.8

c1ccc2ccccc2c1 [naphthalene] + CCCCCCC
[1]
Details	mass density [kg/m3]	speed of sound [m/s]
m1 = 0.0934	682.41 ± 1.6	1134.3 ± 1.8
m1 = 0.1975	685.54 ± 1.6	1137.2 ± 1.8
m1 = 0.2708	687.7 ± 1.6	1139.1 ± 1.8
m1 = 0.3725	690.68 ± 1.6	1141.8 ± 1.8
m1 = 0.4561	693.03 ± 1.6	1144 ± 1.8

c1ccc2c(c1)ccc1ccccc12 [phenanthrene] + CCCCCCC
[1]
Details	mass density [kg/m3]	speed of sound [m/s]
m1 = 0.0349	681.3 ± 1.6	1133.2 ± 1.8
m1 = 0.0513	682.12 ± 1.6	1134 ± 1.8
m1 = 0.0739	683.26 ± 1.6	1135 ± 1.8
m1 = 0.0812	683.59 ± 1.6	1135.3 ± 1.8
m1 = 0.1012	684.63 ± 1.6	1136.2 ± 1.8

c1ccc(-c2ccccc2)cc1 [biphenyl] + CCCCCCC
[1]
Details	mass density [kg/m3]	speed of sound [m/s]
m1 = 0.0409	681.02 ± 1.6	1133 ± 1.8
m1 = 0.0772	682.37 ± 1.6	1134.4 ± 1.8
m1 = 0.113	683.67 ± 1.6	1135.6 ± 1.8
m1 = 0.1561	685.21 ± 1.6	1137 ± 1.8
m1 = 0.1949	686.6 ± 1.6	1138.3 ± 1.8

c1ccc(-c2ccccc2)cc1 [biphenyl] + C1CCCCC1
[1]
Details	mass density [kg/m3]	speed of sound [m/s]
m1 = 0.0342	774.82 ± 1.6	1256 ± 1.8
m1 = 0.0676	775.74 ± 1.6	1256.7 ± 1.8
m1 = 0.1061	776.79 ± 1.6	1257.5 ± 1.8
m1 = 0.1335	777.52 ± 1.6	1258.1 ± 1.8
m1 = 0.1732	778.61 ± 1.6	1259 ± 1.8

c1ccc2ccccc2c1 [naphthalene] + C1CCCCC1
[1]
Details	mass density [kg/m3]	speed of sound [m/s]
m1 = 0.0805	775.71 ± 1.6	1256.5 ± 1.8
m1 = 0.1659	777.64 ± 1.6	1257.8 ± 1.8
m1 = 0.2522	779.56 ± 1.6	1259.1 ± 1.8
m1 = 0.3257	781.18 ± 1.6	1260.2 ± 1.8
m1 = 0.4055	782.91 ± 1.6	1261.5 ± 1.8

c1ccc(-c2cccc(-c3ccccc3)c2)cc1 [m-terphenyl] + CCCCCCC
[1]
Details	mass density [kg/m3]	speed of sound [m/s]
m1 = 0.0245	681.04 ± 1.6	1133 ± 1.8
m1 = 0.04	682 ± 1.6	1133.8 ± 1.8
m1 = 0.0536	682.83 ± 1.6	1134.6 ± 1.8
m1 = 0.0666	683.63 ± 1.6	1135.3 ± 1.8
m1 = 0.076	684.21 ± 1.6	1135.9 ± 1.8

c1ccccc1 [benzene] + CCCCCCC
[1]
Details	mass density [kg/m3]	speed of sound [m/s]
m1 = 0.1915	681.6 ± 1.6	1132.3 ± 1.8
m1 = 0.3783	683.56 ± 1.6	1133.2 ± 1.8
m1 = 0.5615	685.43 ± 1.6	1133.9 ± 1.8
m1 = 0.7515	687.34 ± 1.6	1134.8 ± 1.8
m1 = 0.943	689.24 ± 1.6	1135.8 ± 1.8

c1ccc(-c2ccccc2-c2ccccc2)cc1 [o-terphenyl] + C1CCCCC1
[1]
Details	mass density [kg/m3]	speed of sound [m/s]
m1 = 0.0245	775.07 ± 1.6	1256.1 ± 1.8
m1 = 0.0451	776.06 ± 1.6	1256.8 ± 1.8
m1 = 0.0688	777.19 ± 1.6	1257.5 ± 1.8
m1 = 0.093	778.35 ± 1.6	1258.4 ± 1.8
m1 = 0.1144	779.36 ± 1.6	1259 ± 1.8

c1ccc2c(c1)ccc1ccccc12 [phenanthrene] + C1CCCCC1
[1]
Details	mass density [kg/m3]	speed of sound [m/s]
m1 = 0.0343	775.27 ± 1.6	1256.4 ± 1.8
m1 = 0.0591	776.28 ± 1.6	1257.2 ± 1.8
m1 = 0.0896	777.54 ± 1.6	1258.2 ± 1.8
m1 = 0.1162	778.63 ± 1.6	1259 ± 1.8
m1 = 0.1455	779.78 ± 1.6	1259.8 ± 1.8

C1CCCCC1 [cyclohexane] + c1ccccc1
[1]
Details	mass density [kg/m3]	speed of sound [m/s]
m2 = 0.162	774.73 ± 1.6	1254.7 ± 1.8
m2 = 0.3316	775.59 ± 1.6	1254.2 ± 1.8
m2 = 0.5187	776.54 ± 1.6	1253.5 ± 1.8
m2 = 0.6616	777.26 ± 1.6	1253.2 ± 1.8
m2 = 0.8272	778.07 ± 1.6	1252.7 ± 1.8
